Measured values: US4866038A, “Method of stimulating integumental melanocytes by topical application of analogs of alpha-msh” (University Patents, Inc., priority 1988, dated 1989)
Non-standard residues stand in square brackets, D forms with d. Residues, ends and D or L forms follow the SMILES beside them. Nle = CCCC[C@H](N)C(=O)O

Assays:
[1] = test system: TA-98 strain of S. typhimurium; assay: Ames microbacterial assay; conditions: for […] PLATE WITHOUT S-9 / REVERTANTS PER PLATE WITH S-9 / REVERTANTS PER PLATE WITHOUT S-9: TA-98, spontaneous revertants subtracted
Method: The Ames microbacterial assay was used for these tests which were performed both with and without a microsomal enzyme/NADPH generating system. Briefly, this test measures the number of reverse mutations which occur in special histidine-dependent strains of Salmonella typhimurium. Positives (mutations) are scored as the number of revertant cells which are able to form colonies in a histidine-deficient growth medium after exposure to a mutagenic substance.
All substances were dissolved in sterile 0.9% sodium chloride (without preservatives) to concentrations of 10^-2, 10^-3 and 10^-4 Molar. The TA-98 strain of S. typhimurium was used and experiments were performed with and without exposure to S-9 rat liver microsomal enzymes and an NADPH generating system. This enzyme cocktail can metabolically activate some compounds to mutagenic species. In addition to the melanotropins, Doxorubicin (Adriamycin™) was also simultaneously tested. […] It was thus included to act as a positive control. […] For the actual evaluation of revertants, the identity of the specific test compound was blinded.

C57BL/6JA^y yellow mouse = assay: subcutaneous injection, follicular melanogenesis in the yellow mouse; format: in vivo
From the text: Alpha-MSH and [Nle^4 D-Phe^7 ]--alpha-MSH were synthesized. Mice (C57BL/6JA^y) originally obtained from the Jackson Laboratories (Bar Harbor, ME) were raised in our laboratory with continuous access to food and water.
Melanotropins induce melanogenesis only during hair growth, and melanosomes are continuously incorporated into cells of the hair shaft as long as the hair remains in the anagen (proliferative) phase of the hair cycle. Eumelanin synthesis in only those hairs currently growing results in the formation of a pattern showing the specific areas on the animal in the anagen phase at the time of hormone injection.

C57BL/6JA^y mice = assay: topical application in PEG ointment, follicular melanogenesis in the mouse; format: in vivo
From the text: An area (2-3 cm^2) of hair on the posterior dorsum of 48-day old mice was plucked; in mice of this age, hair follicles in the posterior dorsum are in the telogen (resting) phase of the hair cycle. Plucking hairs from resting follicles stimulates new hair growth and by 7 days later those hairs being erupting through the skin surface. Mice were fitted with cardboard collars to prevent investigation and spread of the ointment to non-treated areas of the skin and then housed individually in cages. The ointment containing [Nle^4, D-Phe^7 -]alpha-MSH (0.5 ml, 10^-6 M) was applied daily to the plucked area at the time of new hair eruption. A sample of emerging hair was removed prior to topical application of the melanotropin and every 24 hours thereafter for seven days.
Eumelanin was not visible within hairs taken from control mice. […] Only phaeomelanosomes were present in mice treated with the control ointment containing no melanotropin.

[2] = test system: Mice with some pigmentation on their skin; assay: topical Azone cream on mice with some skin pigmentation; format: in vivo, mouse; conditions: 1.8% azone, MSH 0.001% or 0.003%
From the text: Example 4 was repeated with compositions comprising alpha-MSH or [Nle^4, D--Phe^7 ]-alpha-MSH in propylene glycol and 1-dodecylazacycloheptan-2-one [a synthetic polar surfactant previously known to enhance transdermal penetration of other compounds. See, e.g., Stoughton, R. B., Arch. Dematol. 118:479(1982); Stoughton, R. B. and W. O. McClure, Drug Devel. Indust. Pharm. 9(4):725(1983); (Azone)]. Although the vehicle was a solid at room temperature, it immediately softened and spread easily when applied to the shaved skin of the mouse.
In this example, the azone concentration was 1.8% and the MSH final concentration was either 0.001% (1mg/100g cream base) or 0.003%.
Mice with some pigmentation on their skin were treated with the same cream as Example 5.
The tails of the treated animals darkened in spite of not being directly treated topically.

frog (Rana pipiens) = format: cell-based
Method: (§1) Biological effect on in vivo and in vitro melanosome dispersion was examined using the frog (Rana pipiens) and the lizard (Anolis caroliniensis). [See Hadley et al., Science 213:1025-1027(1981)]; similar examinations were conducted with respect to the duration of its ability to stimulate melanosome dispersion in vitro using the skin bioassay as described in Shimume, Endrochrinology, 54:553-560(1954). The in vitro results are depicted in Table I.

[3] = test system: lizard (Anolis caroliniensis); format: cell-based
Method: as §1

[4] = single injection 0.05 ml, 10^-6 M

COc1cccc2c1C(=O)c1c(O)c3c(c(O)c1C2=O)C[C@@](O)(C(=O)CO)C[C@@H]3O[C@H]1C[C@H](N)[C@H](O)[C@H](C)O1 [Adriamycin, Doxorubicin]
[…] PLATE WITHOUT S-9 ([1]; 10 µg/ml): 230 | […] PLATE WITHOUT S-9 ([1]; 100 µg/ml): 1940 | […] PLATE WITHOUT S-9 ([1]; 1.0 g/ml): 0 | mutagenicity in vitro ([1]; TA-98, with and without S-9): significantly mutagenic

[Nle^4, D--Phe^7 ]--alpha-MSH [[Nle^4, D-Phe^7]-alpha-MSH]
coat color change (C57BL/6JA^y yellow mouse; 14 consecutive daily injections): entire coat color was found to be changed | duration of eumelanogenesis after the one injection (C57BL/6JA^y yellow mouse; [4]): 96 h | time to shift from phaeomelanin production to eumelanin synthesis within hair bulbs (C57BL/6JA^y yellow mouse; [4]): 24 h | time to eumelanin within hair bulbs following application (C57BL/6JA^y mice; topical ointment 0.5 ml, 10^-6 M daily, microscopic examination): ≤ 24 h | melanosomes within follicular melanocytes, electron microscopic examination (C57BL/6JA^y mice; topical ointment daily): presence of eumelanotic melanosomes within follicular melanocytes | histologic examination of pigment [2]: increased pigment in the areas of non-follicular melancytes | tail colour, tail not directly treated [2]: darkened

CCCC[C@H](NC(C)=O)C(=O)N[C@@H](CCC(=O)O)C(=O)N[C@@H](Cc1c[nH]cn1)C(=O)N[C@H](Cc1ccccc1)C(=O)N[C@@H](CCCNC(=N)N)C(=O)N[C@@H](Cc1c[nH]c2ccccc12)C(=O)NCC(N)=O [Ac--[Nle^4 --D-Phe^7]--alpha-MSH4-10 --NH2]
Relative Potency Frog (frog (Rana pipiens)): 0.02 | REVERTANTS PER PLATE WITH S-9 ([1]; 10^-2 M): 0 | REVERTANTS PER PLATE WITHOUT S-9 ([1]; 10^-2 M): 0 | REVERTANTS PER PLATE WITH S-9 ([1]; 10^-3 M): 0 | REVERTANTS PER PLATE WITHOUT S-9 ([1]; 10^-3 M): 0 | REVERTANTS PER PLATE WITH S-9 ([1]; 10^-4 M): 0 | REVERTANTS PER PLATE WITHOUT S-9 ([1]; 10^-4 M): 0

CCCC[C@H](NC(C)=O)C(=O)N[C@@H](CCC(=O)O)C(=O)N[C@@H](Cc1c[nH]cn1)C(=O)N[C@@H](Cc1ccccc1)C(=O)N[C@@H](CCCNC(=N)N)C(=O)N[C@@H](Cc1c[nH]c2ccccc12)C(=O)NCC(=O)N[C@@H](CCCCN)C(N)=O [Ac--[Nle^4]-alpha-MSH4-11 --NH2] (Ac-[Nle]EHFRWGK-NH2)
Relative Potency Frog (frog (Rana pipiens)): 0.0019 | Relative Potency Lizard [3]: 1.54

CCCC[C@H](NC(C)=O)C(=O)N[C@@H](CCC(=O)O)C(=O)N[C@@H](Cc1c[nH]cn1)C(=O)N[C@@H](Cc1ccccc1)C(=O)N[C@H](CCCNC(=N)N)C(=O)N[C@@H](Cc1c[nH]c2ccccc12)C(=O)NCC(=O)N[C@@H](CCCCN)C(N)=O [Ac--[Nle^4 --D-Arg^8]--alpha-MSH4-11 --NH2] (Ac-[Nle]EHF[dR]WGK-NH2)
Relative Potency Frog (frog (Rana pipiens)): 0.000016 | Relative Potency Lizard [3]: 0.0022

CCCC[C@H](NC(C)=O)C(=O)N[C@@H](CCC(=O)O)C(=O)N[C@@H](Cc1c[nH]cn1)C(=O)N[C@H](Cc1ccccc1)C(=O)N[C@@H](CCCNC(=N)N)C(=O)N[C@@H](Cc1c[nH]c2ccccc12)C(=O)NCC(=O)N[C@@H](CCCCN)C(N)=O [Ac--[Nle^4 --D-Phe^7]--alpha-MSH4-11 --NH2] (Ac-[Nle]EH[dF]RWGK-NH2)
Relative Potency Frog (frog (Rana pipiens)): 0.012 | Relative Potency Lizard [3]: 8.0

CCCC[C@H](NC(C)=O)C(=O)N[C@@H](CCC(=O)O)C(=O)N[C@@H](Cc1c[nH]cn1)C(=O)N[C@@H](Cc1ccccc1)C(=O)N[C@@H](CCCNC(=N)N)C(=O)N[C@H](Cc1c[nH]c2ccccc12)C(=O)NCC(=O)N[C@@H](CCCCN)C(N)=O [Ac--[Nle^4 --D-Trp^9]--alpha-MSH4-11 --NH2] (Ac-[Nle]EHFR[dW]GK-NH2)
Relative Potency Frog (frog (Rana pipiens)): 0.61 | Relative Potency Lizard [3]: 1.7
